We go through seven molecules from patent EP0719251B1, “BICYCLO (2.2.2) OCTANE DERIVATIVES CHOLECYSTOKININ AND/OR GASTRIN ANTAGONISTS” (JAMES BLACK FOUNDATION LIMITED, priority 1993, dated 1995).

Assay [1] has as its target T1, gastrin (Rattus norvegicus, UniProt P30553).
T1 construct: The stomach was excised and flushed with ca. 1 ml of unbuffered physiological saline solution; from tissue; host or cells: isolated whole stomach of immature rats (33-50 g, ca. 21 days old)
T1 sequence (P30553 1-452): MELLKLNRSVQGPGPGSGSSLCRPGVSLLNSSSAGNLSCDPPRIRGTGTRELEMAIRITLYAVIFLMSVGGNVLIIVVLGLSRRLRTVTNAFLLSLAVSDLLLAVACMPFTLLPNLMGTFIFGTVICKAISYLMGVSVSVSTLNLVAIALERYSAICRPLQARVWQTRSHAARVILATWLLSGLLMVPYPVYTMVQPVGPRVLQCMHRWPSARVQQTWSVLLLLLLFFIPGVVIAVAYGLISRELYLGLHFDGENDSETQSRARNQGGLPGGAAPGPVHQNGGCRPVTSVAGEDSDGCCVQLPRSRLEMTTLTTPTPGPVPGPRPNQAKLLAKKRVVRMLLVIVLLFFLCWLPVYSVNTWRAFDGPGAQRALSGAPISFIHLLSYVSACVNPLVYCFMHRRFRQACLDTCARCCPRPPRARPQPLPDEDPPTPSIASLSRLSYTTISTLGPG
Put plainly: gastrin antagonist activity in an immature rat stomach assay. As to conditions: isolated immature rat stomach, cumulative pentagastrin dose-response curves, acid secretion; for Kb: read-out: Gastrin pKB (converted). In short, it runs like this: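 Isolated stomachs from immature rats (33-50 g, ca. 21 days) perfused at 1 ml min^-1 with O2-gassed unbuffered saline, perfusate pH monitored by electrode. After 120 min stabilisation, compounds added to serosal bath; cumulative pentagastrin dose-response curves begun 60 min later.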

Assay [2] deals with T2, CCKB receptor (Mus musculus, UniProt P56481).
T2 construct: The whole brains from male mice (CD1 22-25g; Charles River) were removed; from tissue; host or cells: cerebral cortex membranes of male CD1 mice
T2 sequence (P56481 1-453): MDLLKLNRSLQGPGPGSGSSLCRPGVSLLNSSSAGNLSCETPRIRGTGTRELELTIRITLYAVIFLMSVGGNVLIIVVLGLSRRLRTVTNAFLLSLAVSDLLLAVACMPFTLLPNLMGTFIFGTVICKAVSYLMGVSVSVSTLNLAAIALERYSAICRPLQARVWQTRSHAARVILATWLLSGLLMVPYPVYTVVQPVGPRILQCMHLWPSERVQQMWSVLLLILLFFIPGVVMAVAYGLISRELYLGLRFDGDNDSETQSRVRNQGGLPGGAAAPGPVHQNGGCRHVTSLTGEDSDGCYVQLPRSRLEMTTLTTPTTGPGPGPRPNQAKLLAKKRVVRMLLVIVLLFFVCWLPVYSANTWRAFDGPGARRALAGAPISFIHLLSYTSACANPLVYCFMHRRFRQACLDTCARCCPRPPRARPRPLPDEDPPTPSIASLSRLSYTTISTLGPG
Put plainly: radioligand binding assay at the CCKB receptor in mouse cortical membranes. The conditions noted are these: [125I]-CCK8S 200pM, 150 min at 21 ± 3°C; for Ki: read-out: CCKB pKi (converted). In short, it runs like this: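 Cortical membranes from male CD1 mice prepared in HEPES buffer (pH 7.2, with NaCl, KCl, MgCl2, EDTA, bacitracin) at 2 mg/ml wet weight. Binding stopped by rapid filtration over GF/B filters with ice-cold Tris-HCl washes. Bound radioactivity counted in a gamma-counter.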

The target of assay [3] is T3, CCKA (Cavia porcellus, UniProt Q63931).
T3 construct: The pancreatata were removed from male guinea-pigs (200-300g; Dunkin Hartley); from tissue; host or cells: pancreas membranes of male Dunkin Hartley guinea-pigs
T3 sequence (Q63931 1-430): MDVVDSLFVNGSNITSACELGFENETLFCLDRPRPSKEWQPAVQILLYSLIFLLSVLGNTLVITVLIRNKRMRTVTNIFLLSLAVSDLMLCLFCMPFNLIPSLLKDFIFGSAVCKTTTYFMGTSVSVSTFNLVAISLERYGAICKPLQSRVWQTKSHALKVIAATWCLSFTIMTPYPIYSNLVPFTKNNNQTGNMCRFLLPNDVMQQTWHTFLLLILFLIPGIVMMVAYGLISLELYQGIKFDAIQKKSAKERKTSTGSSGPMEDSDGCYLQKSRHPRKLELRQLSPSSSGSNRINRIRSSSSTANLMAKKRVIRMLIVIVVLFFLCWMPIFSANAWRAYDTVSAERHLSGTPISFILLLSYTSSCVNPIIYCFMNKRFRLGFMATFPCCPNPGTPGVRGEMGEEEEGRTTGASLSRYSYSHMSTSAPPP
Put plainly: CCKA binding assay in guinea-pig pancreas membranes. The conditions noted are these: [125I]-CCK8(S) 200pM; for Ki: containing 0.375 µM PD134,308, read-out: CCKA pKi (converted). In short, it runs like this: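 Competition binding of [125I]-CCK8(S) (200 pM in the added solution) to male guinea-pig pancreas membranes (1 mg/ml wet weight) containing 0.375 µM PD134,308, in HEPES buffer pH 7.2. Incubated 150 min at 21 ± 3°, then filtered. Bound radioactivity gamma-counted; non-specific binding defined with 100nM L-364,718.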

On to `CN(C(=O)C1C2c3ccccc3C(c3ccccc32)C1C(=O)NCC12CC3CC(CC(C3)C1)C2)[C@@H](Cc1ccccc1)C(=O)Nc1cc(C(=O)O)cc(C(=O)O)c1` (stereo partly drawn) [Example 38, cis-7-(1S-(3,5-dicarboxyphenylaminocarbonyl) -2-phenylethyl-N (methyl)-aminocarbonyl) -8-(1-adamantanemethylaminocarbonyl) -2,3,5,6-dibenzobicyclo[2.2.2]octane], for which, in assay [1], the Kb is 79.4 nM. The results for the Ki in assay [2] and in assay [3] were 50.1 nM and 316 nM, respectively.
The matching figures for `O=C(O)c1cc(NC(=O)[C@H](Cc2ccccc2)NC(=O)C2C3c4ccccc4C(c4ccccc43)C2C(=O)NCC23CC4CC(CC(C4)C2)C3)cc(C(=O)O)c1` (single isomer, unassigned) [Example 2, cis-7-(1S-(3,5-dicarboxyphenylaminocarbonyl) -2-phenylethylaminocarbonyl)-8-(1-adamantanemethylaminocarbonyl)-2,3,5,6-dibenzobicyclo[2.2.2] octane]: 50.1 nM, 15.8 nM and 501 nM.
Taken in the same sequence, the figures for `O=C(O)c1cc(NC(=O)[C@H](Cc2ccccc2F)NC(=O)C2C3c4ccccc4C(c4ccccc43)C2C(=O)NCC23CC4CC(CC(C4)C2)C3)cc(C(=O)O)c1` (single isomer, unassigned) [Example 17, cis-7-(1S-(3,5-dicarboxyphenylaminocarbonyl)-2-(2-fluorophenyl)ethylaminocarbonyl)-8-(1-adamantanemethylaminocarbonyl) -2,3,5,6-dibenzobicyclo[2.2.2]octane] were 10 nM, 6.31 nM and 794 nM.
For the molecule “cis-7-(1S-(3,5-dicarboxyphenylaminocarbonyl) -2-(2-thiophenyl)-ethylaminocarbonyl) -8-(1-adamantane-methylaminocarbonyl) -2,3,5,6-dibenzobicyclo[2.2.2]octane [Example 6]”, in assay [1] (60 min), the “Gastrin pKB” value is on record as 7.9. Besides, the “CCKB pKi” value in assay [2] is reported as 8.6. For the same molecule, the “CCKA pKi” value in assay [3] (containing 0.375 µM PD134,308) came to 5.7.
Turning to `COc1ccc(C[C@H](NC(=O)C2C3c4ccccc4C(c4ccccc43)C2C(=O)NCC23CC4CC(CC(C4)C2)C3)C(=O)Nc2cc(C(=O)O)cc(C(=O)O)c2)cc1` (single isomer, unassigned) [Example 12, cis-7-(1S-(3,5-dicarboxyphenylaminocarbonyl)-2-(4-methoxyphenyl) -ethylaminocarbonyl)-8-(1-adamantanemethylaminocarbonyl) -2,3,5,6-dibenzobicyclo[2.2.2]octane], the Kb in assay [1] is 63.1 nM. Further, the Ki was 100 nM in assay [2] and 1580 nM in assay [3].
Consider `O=C(O)c1cc(NC(=O)[C@H](Cc2ccccc2)NC(=O)C2C3c4ccccc4C(c4ccccc43)C2C(=O)NCCc2ccccc2)cc(C(=O)O)c1` (stereo partly drawn) [Example 53, cis-7-(1S-(3,5-dicarboxyphenylaminocarbonyl) -2-phenylethylaminocarbonyl) -8-(2-phenylethylaminocarbonyl) -2,3,5,6-dibenzobicyclo[2.2.2]octane], for which the Kb in assay [1] is 79.4 nM. For the same molecule, the Ki in assay [2] was 3.98 nM; in assay [3], 3160 nM.
Taken in the same sequence, the figures for `O=C(O)c1cc(NC(=O)[C@H](Cc2ccccc2Cl)NC(=O)C2C3c4ccccc4C(c4ccccc43)C2C(=O)NCC23CC4CC(CC(C4)C2)C3)cc(C(=O)O)c1` (stereo partly drawn) [Example 20, cis-7-(1S-(3,5-dicarboxyphenylaminocarbonyl)-2-(2-chlorophenyl) -ethylaminocarbonyl)-8-(1-adamantanemethylaminocarbonyl) -2,3,5,6-dibenzobicyclo [2.2.2] octane] were 6.31 nM, 10 nM and 2000 nM.
